# Experimental data as given in US8324186B2, “4-azetidinyl-1-heteroatom linked-cyclohexane antagonists of CCR2” (Janssen Pharmaceutica N.V., priority 2009, dated 2012).
# Target: T1, CCR2 (Homo sapiens, UniProt P41597)
# T1 construct: host or cells: THP-1 human monocytic cells
# Experiment: MCP-1 Receptor Binding Assay in THP-1 Cells (125I-MCP-1 displacement)
# Conditions: 0.5 nM 125I labeled MCP-1, 2 hours at 30° C., read-out: CCR2 Binding, Inhibition of MCP-1 Binding IC50
# Protocol: Compounds of the invention were subjected to various representative biological tests. The results of these tests are intended to illustrate the invention in a non-limiting fashion. MCP-1 Receptor Binding Assay in THP-1 Cells
# Human monocytic cell line THP-1 cells were obtained from American Type Culture Collection (Manassas, Va., USA). The THP-1 cells were grown in RPMI-1640 (RPMI: Roswell Park Memorial Institute Medium-cell culture growth media) supplemented with 10% fetal bovine serum in a humidified 5% CO2 atmosphere at 37° C. The cell density was maintained […].
# THP-1 (cells were incubated with 0.5 nM ^125I labeled MCP-1 (Perkin-Elmer Life Sciences, Inc. Boston, Mass.) in the presence of varying concentrations of either unlabeled MCP-1 (R & D Systems, Minneapolis, Minn.) or test compound for 2 hours at 30° C. in a 96 well plate. Cells were then harvested onto a filter plate, dried, and 20 μL of Microscint 20 was added to each well. Plates were counted in a TopCount NXT, Microplate Scintillation & Luminescence Counter (Perkin-Elmer Life Sciences, Inc. Boston, Mass.). Blank values (buffer only) were subtracted from all values and drug treated values were compared to vehicle treated values. 1 μM cold MCP-1 was used for nonspecific binding.
# Table 1 lists IC50 values for inhibition of MCP-1 binding to CCR2 obtained for test compounds of the invention. Where an IC50 value was not obtained for a particular compound, the percent inhibition is provided at a test concentration of 25 μM.
# T1 sequence (P41597 whole entry): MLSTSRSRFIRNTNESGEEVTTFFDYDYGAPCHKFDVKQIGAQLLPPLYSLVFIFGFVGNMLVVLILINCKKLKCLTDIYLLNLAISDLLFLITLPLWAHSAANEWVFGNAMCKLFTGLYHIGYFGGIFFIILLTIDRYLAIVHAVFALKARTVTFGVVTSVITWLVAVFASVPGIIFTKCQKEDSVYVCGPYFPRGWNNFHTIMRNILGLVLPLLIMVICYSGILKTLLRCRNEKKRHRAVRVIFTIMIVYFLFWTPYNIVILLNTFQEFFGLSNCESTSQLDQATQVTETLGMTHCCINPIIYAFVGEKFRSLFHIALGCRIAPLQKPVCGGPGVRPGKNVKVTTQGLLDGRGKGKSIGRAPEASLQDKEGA
row,IC50,SMILES
1,1500 nM,"O=C(CNC(=O)c1cccc(C(F)(F)F)c1)NC1CN(C2CCC3(CC2)NC(=O)c2ccccc23)C1 (single isomer, unassigned) [Example 39a]"
2,510 nM,"O=C(CNC(=O)c1cccc(C(F)(F)F)c1)NC1CN(C2CCC(n3ncc4ccccc43)CC2)C1 (single isomer, unassigned) [Example 32a, N-{[1-(4-Indazol-1-yl-cyclohexyl)-azetidin-3-ylcarbamoyl]-methyl}-3-trifluoromethyl-benzamide]"
3,1600 nM,"C#Cc1ccc(=O)n(C2CCC(N3CC(NC(=O)CNC(=O)c4cccc(C(F)(F)F)c4)C3)CC2)c1 (stereo not drawn) [Example 9, N-({1-[4-(5-Ethynyl-2-oxo-2H-pyridin-1-yl)-cyclohexyl]-azetidin-3-ylcarbamoyl}-methyl)-3-trifluoromethyl-benzamide]"
4,95 nM,"O=C(CNC(=O)c1cccc(C(F)(F)F)c1)NC1CN(C2CCC(n3oc4ccccc4c3=O)CC2)C1 (single isomer, unassigned) [Example 26a, N-({1-[4-(3-Oxo-3H-benzo[d]isoxazol-2-yl)-cyclohexyl]-azetidin-3-ylcarbamoyl}-methyl)-3-trifluoromethyl-benzamide]"
5,280 nM,"COc1cccnc1OC1CCC(N2CC(NC(=O)CNC(=O)c3cccc(C(F)(F)F)c3)C2)CC1 (stereo not drawn) [Example 14, N-({1-[4-(3-Methoxy-pyridin-2-yloxy)-cyclohexyl]-azetidin-3-ylcarbamoyl}-methyl)-3-trifluoromethyl-benzamide]"
6,230 nM,"O=C(CNC(=O)c1cccc(C(F)(F)F)c1)NC1CN(C2CCC(Oc3ccccn3)CC2)C1 (single isomer, unassigned) [Example 2a, N-({1-[4-(Pyridin-2-yloxy)-cyclohexyl]-azetidin-3-ylcarbamoyl}-methyl)-3-trifluoromethyl-benzamide]"
7,430 nM,"O=C(CNC(=O)c1cccc(C(F)(F)F)c1)NC1CN(C2CCC(n3cc(I)ccc3=O)CC2)C1 (single isomer, unassigned) [Example 8a, N-({1-[4-(5-Iodo-2-oxo-2H-pyridin-1-yl)-cyclohexyl]-azetidin-3-ylcarbamoyl}-methyl)-3-trifluoromethyl-benzamide]"
8,24000 nM,"O=C(CNC(=O)c1cccc(C(F)(F)F)c1)NC1CN(C2CCC(Oc3ncc(Br)cn3)CC2)C1 (single isomer, unassigned) [Example 5a, N-({1-[4-(5-Bromo-pyrimidin-2-yloxy)-cyclohexyl]-azetidin-3-ylcarbamoyl}-methyl)-3-trifluoromethyl-benzamide]"
9,110 nM,"O=C(CNC(=O)c1cccc(C(F)(F)F)c1)NC1CN(C2CCC(n3cc(I)cn3)CC2)C1 (stereo not drawn) [Example 28, N-({1-[4-(4-Iodo-pyrazol-1-yl)-cyclohexyl]-azetidin-3-ylcarbamoyl}-methyl)-3-trifluoromethyl-benzamide]"
10,7100 nM,"O=C(CNC(=O)c1cccc(C(F)(F)F)c1)NC1CN(C2CCC(n3ccc(=O)cc3)CC2)C1 (stereo not drawn) [Example 16, N-({1-[4-(4-Oxo-4H-pyridin-1-yl)-cyclohexyl]-azetidin-3-ylcarbamoyl}-methyl)-3-trifluoromethyl-benzamide]"
11,170 nM,"Cc1cnn(C2CCC(N3CC(NC(=O)CNC(=O)c4cccc(C(F)(F)F)c4)C3)CC2)c1 (single isomer, unassigned) [Example 27a, N-({1-[4-(4-Methyl-pyrazol-1-yl)-cyclohexyl]-azetidin-3-ylcarbamoyl}-methyl)-3-trifluoromethyl-benzamide]"
12,2200 nM,"O=C(CNC(=O)c1cccc(C(F)(F)F)c1)NC1CN(C2CCC3(CC2)OC(=O)Nc2ccccc23)C1 (single isomer, unassigned) [Example 40a]"
